From paper PMC10556057, “The proton channel OTOP1 is a sensor for the taste of ammonium chloride” (Nature Communications, 2023) come the findings set out here.

The EC50 is the concentration at which the effect is half-maximal.

Each structure is given as a SMILES string.

The test addresses T1, mOTOP1 (Mus musculus, UniProt Q80VM9).
T1 construct: gene Otop1; full length in HEK-293 / PAC-KO cells; homodimer
T1 sequence (Q80VM9 1-600): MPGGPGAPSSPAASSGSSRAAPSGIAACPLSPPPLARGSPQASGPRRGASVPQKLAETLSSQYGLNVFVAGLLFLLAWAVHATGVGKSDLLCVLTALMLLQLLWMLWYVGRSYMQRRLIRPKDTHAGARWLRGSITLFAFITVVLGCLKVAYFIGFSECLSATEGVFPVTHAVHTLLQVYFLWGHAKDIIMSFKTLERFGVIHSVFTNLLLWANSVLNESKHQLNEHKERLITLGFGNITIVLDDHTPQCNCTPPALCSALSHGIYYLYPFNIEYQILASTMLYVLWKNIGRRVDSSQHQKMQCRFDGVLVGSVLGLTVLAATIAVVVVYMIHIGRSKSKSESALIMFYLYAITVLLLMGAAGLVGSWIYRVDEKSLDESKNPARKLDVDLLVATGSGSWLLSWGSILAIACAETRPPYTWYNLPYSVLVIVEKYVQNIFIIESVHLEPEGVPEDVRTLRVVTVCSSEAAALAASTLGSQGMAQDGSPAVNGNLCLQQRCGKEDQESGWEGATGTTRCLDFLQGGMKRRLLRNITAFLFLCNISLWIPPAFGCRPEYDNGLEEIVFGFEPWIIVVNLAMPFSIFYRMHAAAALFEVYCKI
Nature of the test: whole-cell patch clamp, inward current in HEK-293. The format is cell-based.

The molecule `N` [NH4Cl] had an EC50 of 18.7 mM.
